Measured values as given in US11564912B2, “Methods for treating irritable bowel syndrome (IBS)” (Salix Pharmaceuticals, Inc., priority 2008, dated 2023).

Tested on: subjects with dIBS
Assay: Study of rifaximin BID in subjects with dIBS: adequate relief of IBS symptoms and bloating
Format: in vivo, human
Settings: for Percentage of Subjects with Number of Weeks with Adequate Relief of Bloating Symptoms / Percentage of Subjects with Number of Weeks with Adequate Relief of IBS Symptoms: RFX 550 mg BID, N = 191, ITT
Description: This example relates to a study of rifaximin in subjects with dIBS. […] There were two measures of efficacy assessed. Subjects were questioned on the relief of overall IBS symptoms and bloating. […] The analyses defined success as a “yes” response to questions regarding adequate relief.
All subpopulations in the study responded to therapy. Baseline severity was determined using 7-point Lickert scales during screening for Abdominal Pain/Discomfort and Bloating, and the number, type (normal, hard, loose) and urgency of bowel movements.
Duration of effect was assessed in a follow-up period. Subjects that responded in the 4 week treatment period were followed for an additional 3 months.
The effect of treatment on the percentage of subjects who reported adequate relief of IBS and bloating symptoms for at least two of the final three weeks during the treatment phase (Weeks 1 to 4) is shown in Tables 3-5 and FIGS. 4-6 below.
Two measures of efficacy were assessed independently. The first was the proportion of subjects who provided a ‘yes’ response to the weekly SGA question: “In the past 7 days, have you had adequate relief of your IBS symptoms? (yes/no)”. The second endpoint was the proportion of subjects who provide a ‘yes’ response to the weekly individual symptom question: “In the past 7 days, have you had adequate relief of your symptom of bloating? (yes/no)”. Durability was based on the proportion of subjects that had adequate relief over the entire treatment phase.
It is reported herein that the severity of baseline symptoms of abdominal pain and bloating influenced the response to rifaximin treatment. The co-primary endpoints in this analysis assessed weekly yes/no responses to questions regarding adequate relief of global IBS symptoms and IBS-associated bloating. Severity of baseline IBS symptoms was evaluated as a potential confounder of clinical response and was categorized as mild/moderate or severe based on a mean score of ≤4 vs. >4 (on a 7-point scale) for bloating and abdominal pain.
The Weekly yes/no responses to questions regarding adequate relief of global IBS symptoms and IBS-associated bloating were assessed. Clinical response was defined as adequate relief for 2 of the final 3 treatment weeks (wk 2, 3, or 4). Severity of baseline IBS symptoms was evaluated as a potential confounder of clinical response and was categorized as mild/moderate or severe based on a mean score of ≤4 versus >4 (on a 7-point scale (0=not bothersome; 6=very bothersome)) for bloating and abdominal pain.

For “(2S,16Z,18E,20S,21S,22R, 23R,24R,25S,26S,27S,28E)-5,6,21,23,25 Pentahydroxy-27-methoxy -2,4,11,16,20,22,24,26-octamethyl-2,7-(epoxypentadeca-(1,11,13)trienimino)benzofuro (4,5-e) pyrido(1,2,-a) benzimidazole-1,15(2H)-dione,25-acetate [Rifaximin]”, the “Percentage of Subjects with Number of Weeks with Adequate Relief of Bloating Symptoms” value (“Percentage of Subjects … of Bloating Symptoms” for short) (0 weeks) was 35%, the “Percentage of Subjects with Number of Weeks with Adequate Relief of IBS Symptoms” value (“Percentage of Subjects … of IBS Symptoms” below) (0 weeks) was 33% and the “Adequate relief of IBS related symptoms (SGA) and IBS-related bloating (IBS-B)” value (550 mg BID for 2 weeks) was “statistically significant relief”. For the same substance, the “Percentage of Subjects … of Bloating Symptoms” value (1 week) was 14%, the “Percentage of Subjects … of IBS Symptoms” value (1 week) was 11% and the “Percentage of Subjects … of Bloating Symptoms” value (2 weeks) was 15%. The “Percentage of Subjects … of IBS Symptoms” value (2 weeks) was 15%, the “Percentage of Subjects … of Bloating Symptoms” value (3 weeks) was 20% and the “Percentage of Subjects … of IBS Symptoms” value (3 weeks) was 23%. The “Percentage of Subjects … of Bloating Symptoms” value (4 weeks) was 14%, the “Percentage of Subjects … of IBS Symptoms” value (4 weeks) was 16% and the “Treatment effect (Bloating)” value (Age <65) was 6.8%. The “Treatment effect (IBS Sx)” value (Age <65) was 6.9%, the “Treatment effect (Bloating)” value (Age ≥65) was 3.2% and the “Treatment effect (IBS Sx)” value (Age ≥65) was 19.1%. For the same substance, the “Treatment effect (Bloating)” value (Diabetes History: N) was 7.4%, the “Treatment effect (IBS Sx)” value (Diabetes History: N) was 9.5% and the “Treatment effect (Bloating)” value (Diabetes History: Y) was −5.6%. For the same substance, the “Treatment effect (IBS Sx)” value (Diabetes History: Y) was −12.7%, the “Treatment effect (Bloating)” value (Disease Duration: 10-20 y) was 11.7% and the “Treatment effect (IBS Sx)” value (Disease Duration: 10-20 y) was 20.1%. The “Treatment effect (Bloating)” value (Disease Duration: >20 y) was 35.1%, the “Treatment effect (IBS Sx)” value (Disease Duration: >20 y) was 46.6% and the “Treatment effect (Bloating)” value (Disease Duration: ≤10 y) was 2.8%. The “Treatment effect (IBS Sx)” value (Disease Duration: ≤10 y) was 1.8%, the “Adequate Relief of Bloating at the End of the Treatment Phase: Failure” value (from here on “Adequate Relief of Bloating at the End … Failure”) (Female, RFX 275 2 w (N = 95)) was 52 (64.2%) n (%) and the “Adequate Relief of Bloating at the End of the Treatment Phase: Success” value (“Adequate Relief of Bloating at the End … Success” for short) (Female, RFX 275 2 w (N = 95)) was 29 (35.8%) n (%). For the same substance, the “Adequate Relief of IBS Symptoms at the End of the Treatment Phase: Failure” value (“Adequate Relief of IBS Symptoms … Failure” for short) (Female, RFX 275 2 w (N = 95)) was 46 (56.8%) n (%), the “Adequate Relief of IBS Symptoms at the End of the Treatment Phase: Success” value (“Adequate Relief of IBS Symptoms … Success” below) (Female, RFX 275 2 w (N = 95)) was 35 (43.2%) n (%) and the “Adequate Relief of Bloating at the End … Failure” value (Female, RFX 550 2 w (N = 99)) was 45 (61.6%) n (%). The “Adequate Relief of Bloating at the End … Success” value (Female, RFX 550 2 w (N = 99)) was 28 (38.4%) n (%), the “Adequate Relief of IBS Symptoms … Failure” value (Female, RFX 550 2 w (N = 99)) was 44 (60.3%) n (%) and the “Adequate Relief of IBS Symptoms … Success” value (Female, RFX 550 2 w (N = 99)) was 29 (39.7%) n (%). For the same substance, the “Adequate Relief of Bloating at the End … Failure” value (Female, RFX 550 2 w (N = 191)) was 74 (54.0%) n (%), the “Adequate Relief of Bloating at the End … Success” value (Female, RFX 550 2 w (N = 191)) was 63 (46.0%) n (%) and the “Adequate Relief of IBS Symptoms … Failure” value (Female, RFX 550 2 w (N = 191)) was 66 (48.2%) n (%). The “Adequate Relief of IBS Symptoms … Success” value (Female, RFX 550 2 w (N = 191)) was 71 (51.8%) n (%), the “odds ratio, Adequate Relief of Bloating at the End of the Treatment Phase” value (Female, RFX 550 2 w vs. PBO) was “Comparison of RFX 550 2 w vs. PBO p-value: 0.5366, odds ratio: 1.166 (0.716, 1.898)” and the “odds ratio, Adequate Relief of IBS Symptoms at the End of the Treatment Phase” value (Female, RFX 550 2 w vs. PBO) was “Comparison of RFX 550 2 w vs. PBO p-value: 0.7608, odds ratio: 1.078 (0.665, 1.747)”. The “Adequate Relief of Bloating at the End … Failure” value (Female, RFX 550 4 w (N = 98)) was 44 (57.9%) n (%), the “Adequate Relief of Bloating at the End … Success” value (Female, RFX 550 4 w (N = 98)) was 32 (42.1%) n (%) and the “Adequate Relief of IBS Symptoms … Failure” value (Female, RFX 550 4 w (N = 98)) was 42 (55.3%) n (%). For the same substance, the “Adequate Relief of IBS Symptoms … Success” value (Female, RFX 550 4 w (N = 98)) was 34 (44.7%) n (%), the “Treatment effect (Bloating)” value (Gender: F) was 3.9% and the “Treatment effect (IBS Sx)” value (Gender: F) was 3.5%. For the same substance, the “Treatment effect (Bloating)” value (Gender: M) was 13.6%, the “Treatment effect (IBS Sx)” value (Gender: M) was 21% and the “Adequate Relief of Bloating at the End … Failure” value (Male, RFX 275 2 w (N = 95)) was 8 (57.1%) n (%). The “Adequate Relief of Bloating at the End … Success” value (Male, RFX 275 2 w (N = 95)) was 6 (42.9%) n (%), the “Adequate Relief of IBS Symptoms … Failure” value (Male, RFX 275 2 w (N = 95)) was 9 (64.3%) n (%) and the “Adequate Relief of IBS Symptoms … Success” value (Male, RFX 275 2 w (N = 95)) was 5 (35.7%) n (%). For the same substance, the “Adequate Relief of Bloating at the End … Failure” value (Male, RFX 550 2 w (N = 99)) was 16 (61.5%) n (%), the “Adequate Relief of Bloating at the End … Success” value (Male, RFX 550 2 w (N = 99)) was 10 (38.5%) n (%) and the “Adequate Relief of IBS Symptoms … Failure” value (Male, RFX 550 2 w (N = 99)) was 14 (53.8%) n (%). The “Adequate Relief of IBS Symptoms … Success” value (Male, RFX 550 2 w (N = 99)) was 12 (46.2%) n (%), the “Adequate Relief of Bloating at the End … Failure” value (Male, RFX 550 2 w (N = 191)) was 29 (53.7%) n (%) and the “Adequate Relief of Bloating at the End … Success” value (Male, RFX 550 2 w (N = 191)) was 25 (46.3%) n (%). The “Adequate Relief of IBS Symptoms … Failure” value (Male, RFX 550 2 w (N = 191)) was 25 (46.3%) n (%).
